Reference: US20260083722A1, “BIFUNCTIONAL DEGRADERS COMPRISING ELECTROPHILIC PROTACS THAT ENGAGE DCAF1 AND PHARMACEUTICAL COMPOSITIONS COMPRISING THE SAME” (THE SCRIPPS RESEARCH INSTITUTE, priority 2022, published 2026)

Target: T1, recombinant DCAF1-WT (a.a.'s 1046-1396) (Homo sapiens, UniProt Q9Y4B6)
T1 construct: form of DCAF1 containing the WD40 domain (amino acids (a.a.'s) 1046-1396); made in house
Assay: gel-ABPP with recombinant purified DCAF1-WT doped into HEK293T cell proteome
Type: binding
Conditions: for inhibition of MY-11B probe reactivity with recombinant DCAF1: 2 h, then MY-11B 25 μM 1 h, YT41S and YT47S at single concentration 100 μM; for plateau of blockade of MY-11B labeling: at 20 µM test concentrations; for gel-shift of recombinant DCAF1 by Coomassie blue staining: in the presence of compound
Text: FIG. 2 that azetidine acrylamides stereo- and site-selectively engage recombinant DCAF1_C1113. (A) Domain map of DCAF1 with the region used for recombinant protein studies marked in a bracket (a.a.'s 1046-1396) and C1113 highlighted in red. (B) Crystal structure of a DCAF1-Vpx complex (pdb: 5AJA). DCAF1 (a.a.'s 1046-1396) is shown in cyan, Vpx is shown in yellow, and C1113, which is located at the DCAF1-Vpx interface is shown in red. (C) Structures of alkyne-modified azetidine acrylamides MY-11A (5) and MY-11B (6). (D) Gel-ABPP showing the concentration-dependent reactivity of MY-11A and MY-11B (1 h) reactivity with recombinant, purified DCAF1-WT or the DCAF1-C1113A mutant (0.06 μg/μL of DCAF1 protein per sample) doped into HEK293T cell proteome (1 μg/μL). MY-11A/B labeling of proteins was visualized by CuAAC conjugation to an azide-rhodamine tag followed by SDS-PAGE and in-gel fluorescence scanning. Results are from a single experiment representative of two independent experiments. (E) Gel-ABPP showing the concentration-dependent effects of MY-1A and MY-1B on MY-11B reactivity with DCAF1-WT. Samples were treated with MY-1A/B for 2 h, followed by MY-11B (25 μM, 1 h) and analyzed as described in (D). Left, quantification of data presented as mean values±SEM from two independent experiments. Right, representative gel-ABPP results. (D, E) Lower images are Coomassie blue-stained gels corresponding to ABPP gels shown in upper images.
(A) Structures of candidate electrophilic PROTACs YT41R (7), YT41S (8), YT47R (9), and YT47S (10). (B) Gel-ABPP showing the concentration-dependent effects of YT41R and YT47R on MY-11B reactivity with DCAF1-WT protein (0.06 μg/μL of DCAF1 protein per sample) doped into HEK293T cell proteome (1 μg/μL). Also shown are the effects of YT41S and YT47S tested at a single concentration (100 μM). Samples were treated with heterobifunctional compounds for 2 h, followed by MY-11B (25 μM, 1 h) and analyzed as described in FIG. 2D. Left, representative gel-ABPP results. Lower image is Coomassie blue-stained gel corresponding to ABPP gel shown in upper image. Right, quantification of data presented as mean values±SEM from two independent experiments.
DCAF1 is a multi-domain substrate receptor for CRL4 ligases (FIG. 2A) that has diverse physiological and disease functions, including being co-opted by the HIV-2 virus to promote degradation of the antiviral host protein SAMHD1^27-28. […] We verified the stereo- and site-selective engagement of DCAF1_C1113 by azetidine acrylamides using alkynylated analogues of MY-1A and MY-1B (MY-11A (5) and MY-11B (6), respectively; FIG. 2C). For these experiments, we doped into HEK293T cell lysates a recombinantly expressed and purified form of DCAF1 containing the WD40 domain (amino acids (a.a.'s) 1046-1396), in complex with the CRL4 adaptor protein DDB1^31, and exposed these samples to varying concentrations of MY-11A or MY-11B. After 1 h, we assessed MY-11A and MY-11B engagement of DCAF1 by copper-catalyzed azide-alkyne cycloaddition (CuAAC)^32 with an azide-rhodamine reporter tag followed by SDS-PAGE and in-gel fluorescence scanning^33. […] We used gel-ABPP to quantify an in vitro target engagement value (TE50) of approximately 25 μM (95% C.I.=13-38 μM) for MY-1B labeling of DCAF1 (FIG. 2E, left).

T1 sequence (Q9Y4B6 1046-1396): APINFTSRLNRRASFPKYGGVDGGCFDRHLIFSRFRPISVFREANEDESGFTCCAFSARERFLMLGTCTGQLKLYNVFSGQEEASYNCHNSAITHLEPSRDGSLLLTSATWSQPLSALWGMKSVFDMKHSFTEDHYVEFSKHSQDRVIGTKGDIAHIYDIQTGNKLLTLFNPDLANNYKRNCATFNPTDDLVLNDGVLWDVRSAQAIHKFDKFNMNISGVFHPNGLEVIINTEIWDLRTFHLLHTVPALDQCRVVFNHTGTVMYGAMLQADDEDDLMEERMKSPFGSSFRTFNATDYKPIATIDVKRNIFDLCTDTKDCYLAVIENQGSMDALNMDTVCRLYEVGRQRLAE
T1 sequence (Q16531 whole entry partner, the tested form may be a part): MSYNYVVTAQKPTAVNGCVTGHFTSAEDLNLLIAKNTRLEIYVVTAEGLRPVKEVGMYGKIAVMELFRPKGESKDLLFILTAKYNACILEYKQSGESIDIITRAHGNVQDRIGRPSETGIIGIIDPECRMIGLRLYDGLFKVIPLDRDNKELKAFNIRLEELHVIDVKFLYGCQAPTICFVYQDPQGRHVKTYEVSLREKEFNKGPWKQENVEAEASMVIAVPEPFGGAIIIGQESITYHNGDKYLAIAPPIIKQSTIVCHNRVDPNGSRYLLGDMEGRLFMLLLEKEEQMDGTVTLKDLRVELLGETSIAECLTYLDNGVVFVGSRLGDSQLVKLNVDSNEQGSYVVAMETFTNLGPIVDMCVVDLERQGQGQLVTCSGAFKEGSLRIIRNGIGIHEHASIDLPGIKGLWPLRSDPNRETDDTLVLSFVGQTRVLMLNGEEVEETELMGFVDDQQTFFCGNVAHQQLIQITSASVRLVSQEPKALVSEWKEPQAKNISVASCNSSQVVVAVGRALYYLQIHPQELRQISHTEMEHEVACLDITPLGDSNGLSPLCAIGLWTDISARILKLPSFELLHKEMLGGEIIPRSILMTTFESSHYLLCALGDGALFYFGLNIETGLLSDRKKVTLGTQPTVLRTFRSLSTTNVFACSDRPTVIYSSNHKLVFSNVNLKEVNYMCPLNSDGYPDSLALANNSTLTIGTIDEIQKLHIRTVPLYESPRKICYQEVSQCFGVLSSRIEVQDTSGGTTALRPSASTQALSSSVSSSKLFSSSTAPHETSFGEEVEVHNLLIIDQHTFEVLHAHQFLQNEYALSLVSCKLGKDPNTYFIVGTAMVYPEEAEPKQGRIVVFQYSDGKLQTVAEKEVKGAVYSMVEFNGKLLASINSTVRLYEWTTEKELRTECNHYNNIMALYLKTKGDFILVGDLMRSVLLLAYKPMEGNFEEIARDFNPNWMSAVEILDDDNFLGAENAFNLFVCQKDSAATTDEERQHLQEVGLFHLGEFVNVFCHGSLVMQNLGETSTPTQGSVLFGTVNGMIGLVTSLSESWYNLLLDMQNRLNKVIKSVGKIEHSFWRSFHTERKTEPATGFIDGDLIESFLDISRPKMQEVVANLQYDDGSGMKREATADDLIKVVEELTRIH

SMILES | inhibition of MY-11B probe reactivity with recombinant DCAF1 | plateau of blockade of MY-11B labeling [%] | gel-shift of recombinant DCAF1 by Coomassie blue staining
C=CC(=O)C1C[C@H](c2ccc(C(=O)NCCOCCOCCNC(=O)COc3cccc([C@@H](CCc4ccc(OC)c(OC)c4)OC(=O)[C@@H]4CCCCN4C(=O)C(=O)C(C)(C)CC)c3)cc2)[C@@H]1C(=O)Nc1cccc2cccnc12 (stereo partly drawn) [YT41R] | concentration-dependent inhibition | ~75 | apparent gel-shift
C=CC(=O)N1C[C@H](c2ccc(C(=O)NCCOCCOCCOCCNC(=O)COc3cccc([C@@H](CCc4ccc(OC)c(OC)c4)OC(=O)[C@@H]4CCCCN4C(=O)C(=O)C(C)(C)CC)c3)cc2)[C@@H]1C(=O)Nc1cccc2cccnc12 [YT47R] | concentration-dependent inhibition | ~75 | apparent gel-shift
